According to ChEMBL document CHEMBL2216752, “Carnitine palmitoyltransferase (CPT) modulators: a medicinal chemistry perspective on 35 years of research” (J Med Chem, 2011):
pEC50, pIC50, pKi: −log10 of the molar value. Blank lines part the entries; values can stand above or below the compound they belong to.

Experiments:
[1] = molecular target: T1, Carnitine O-palmitoyltransferase 2, mitochondrial (Homo sapiens, UniProt P23786); assay: Competitive inhibition of CPT2 in liver mitochondria using carnitine
T1 sequence (P23786 whole entry): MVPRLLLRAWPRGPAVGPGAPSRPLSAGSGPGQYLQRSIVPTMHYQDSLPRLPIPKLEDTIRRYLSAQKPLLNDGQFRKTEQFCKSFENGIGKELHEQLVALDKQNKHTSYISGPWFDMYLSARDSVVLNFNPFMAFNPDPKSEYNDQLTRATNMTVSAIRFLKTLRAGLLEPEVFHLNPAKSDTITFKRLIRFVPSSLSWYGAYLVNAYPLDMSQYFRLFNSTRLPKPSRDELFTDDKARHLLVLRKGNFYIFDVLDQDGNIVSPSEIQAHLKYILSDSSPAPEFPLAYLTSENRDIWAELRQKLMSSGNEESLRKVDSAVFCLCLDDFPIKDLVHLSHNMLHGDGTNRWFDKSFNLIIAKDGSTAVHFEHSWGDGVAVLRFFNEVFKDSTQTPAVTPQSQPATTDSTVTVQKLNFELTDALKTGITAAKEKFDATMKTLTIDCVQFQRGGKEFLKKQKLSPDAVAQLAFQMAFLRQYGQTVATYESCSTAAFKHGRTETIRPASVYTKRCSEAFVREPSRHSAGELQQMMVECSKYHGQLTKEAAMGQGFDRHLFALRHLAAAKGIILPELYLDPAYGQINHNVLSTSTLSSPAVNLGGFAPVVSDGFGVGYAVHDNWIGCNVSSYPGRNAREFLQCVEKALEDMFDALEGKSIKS

[2] = molecular target: T1, Carnitine O-palmitoyltransferase 2, mitochondrial; assay: Competitive inhibition of CPT2 in heart mitochondria using carnitine
[3] = molecular target: T1, Carnitine O-palmitoyltransferase 2, mitochondrial; assay: Competitive inhibition of CPT2
[4] = Inhibition of rat FAO
[5] = Inhibition of human FAO
[6] = organism: Sus scrofa; assay: Increase in glucose metabolic clearance rate in pig using [U14C,3-3H]glucose; assay type: functional
[7] = molecular target: T2, Carnitine O-palmitoyltransferase 1, liver isoform (Homo sapiens) (UniProt P50416); assay: Increase in CPT1A activity in hepatocytes at 60 uM; assay type: cell-based; details: Hepatocyte
T2 sequence (whole entry): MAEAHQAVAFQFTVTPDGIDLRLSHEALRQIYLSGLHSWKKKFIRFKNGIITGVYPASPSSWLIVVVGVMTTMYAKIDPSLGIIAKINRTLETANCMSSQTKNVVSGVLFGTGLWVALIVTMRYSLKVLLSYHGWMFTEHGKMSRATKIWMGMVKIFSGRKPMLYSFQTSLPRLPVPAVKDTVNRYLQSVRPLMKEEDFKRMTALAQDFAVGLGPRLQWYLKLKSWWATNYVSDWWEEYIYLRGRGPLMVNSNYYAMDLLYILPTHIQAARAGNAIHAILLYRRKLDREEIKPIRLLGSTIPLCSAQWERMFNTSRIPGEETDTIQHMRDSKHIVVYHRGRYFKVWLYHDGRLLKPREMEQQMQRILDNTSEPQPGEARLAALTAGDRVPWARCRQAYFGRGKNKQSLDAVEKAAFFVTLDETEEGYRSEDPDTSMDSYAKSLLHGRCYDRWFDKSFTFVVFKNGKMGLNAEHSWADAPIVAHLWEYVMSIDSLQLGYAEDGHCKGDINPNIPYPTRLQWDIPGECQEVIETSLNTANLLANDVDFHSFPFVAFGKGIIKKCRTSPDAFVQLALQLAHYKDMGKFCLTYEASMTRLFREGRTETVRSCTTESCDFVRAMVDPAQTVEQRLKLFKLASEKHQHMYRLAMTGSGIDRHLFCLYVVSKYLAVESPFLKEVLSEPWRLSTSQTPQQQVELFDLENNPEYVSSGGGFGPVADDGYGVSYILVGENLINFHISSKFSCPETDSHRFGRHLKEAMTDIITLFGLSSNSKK

[8] = test system: Hepatocyte; assay: Stimulation of FAO in hepatocytes at 28 uM; assay type: cell-based
[9] = molecular target: T2, Carnitine O-palmitoyltransferase 1, liver isoform (Homo sapiens); assay: Increase in CPT1 activity in human MCF7 cells assessed as increase in radiolabeled palmitoylcarnitine relative to untreated control; assay type: cell-based
[10] = molecular target: T3, Carnitine O-palmitoyltransferase 1, liver isoform (Homo sapiens, UniProt P50416); assay: Increase in CPT1 activity in human MCF7 cells assessed as increase in radiolabeled palmitoylcarnitine; assay type: cell-based
T3 sequence (P50416 whole entry): T2 sequence (whole entry)

[11] = molecular target: T2, Carnitine O-palmitoyltransferase 1, liver isoform (Homo sapiens); assay: Increase in CPT1 activity in human MCF7 cells assessed as increase in radiolabeled palmitoylcarnitine at 31 uM; assay type: cell-based
[12] = test system: Rattus norvegicus; assay: Reduction in KB level in Sprague-Dawley rat at 0.44 mg/kg, po; assay type: functional; parameters: scale not given: the % may be the effect or the level left
[13] = test system: Rattus norvegicus; assay: Reduction in glucose level in Sprague-Dawley rat at 88 mg/kg, po; assay type: functional; parameters: scale not given: the % may be the effect or the level left
[14] = Inhibition of carnitine palmitoyltransferase in rat heart mitochondria assessed as conversion of [14C]palmitic acid to [14C]palmitoylcarnitine by radiometric assay
[15] = Inhibition of carnitine palmitoyltransferase in rat liver mitochondria assessed as conversion of [14C]palmitic acid to [14C]palmitoylcarnitine by radiometric assay
[16] = Inhibition of carnitine palmitoyltransferase in 18 hr fasted rat hepatocytes; assay type: cell-based; details: hepatocyte
[17] = Inhibition of carnitine palmitoyltransferase in 18 hr fasted rat liver homogenates; assay type: tissue-based
[18] = Competitive inhibition of carnitine palmitoyltransferase using palmitoyl-CoA
[19] = organism: Rattus norvegicus; assay: Inhibition of CPT1A activity in 48 hrs fasted rat; assay type: functional
[20] = organism: Rattus norvegicus; assay: Reduction in ketone bodies in 48 hrs fasted rat; assay type: functional; parameters: scale not given: the % may be the effect or the level left

pKi [1]: 5.38
pKi [2]: 5.55
pKi [3]: 6.80
SMILES: CCCCCCCCCCCCCCC[C@@]1(O)C[N+](C)(C)C[C@@H](CC(=O)[O-])O1 (racemic)

pIC50 [4]: 6.47
pIC50 [5]: 6.54
SMILES: CCOC(=O)[C@@]1(CCCCCCOc2ccc(Cl)cc2)CO1 [ETOMOXIR]
Activity [6]: 126%

Activity [7]: 150%
Activity [9]: 140%
pEC50 [10]: 5.52
Activity [11]: 177%
SMILES: C=CCC1(CC=C)C(=O)S[C@](C)(CCCCCCCC)C1=O
Activity [8]: 150%

pIC50 [14]: 4.21
pIC50 [15]: 4.76
pIC50 [16]: 5.52
pIC50 [17]: 4.44
pKi [18]: 5.44
SMILES: CCCCCCCCCCCCCCOP(=O)([O-])O[C@H](CC(=O)O)C[N+](C)(C)C
Activity [12]: 77%
Activity [13]: 20%

SMILES: CCCCCCCCCCCCCC[C@]1(C(=O)OC)CO1 (racemic)
inhibition (INH) [19]: 90%
Activity [20]: 90%
